This note sets out measurements from PMC6902879 (Journal of medicinal chemistry, 2019).

A short description of one data set: Water solubility. The format is physicochemical. As to conditions: in words only.
The subject of a further data set is E. coli (K-12). Kind of data set: Antibacterial activity. Type of data set: cell-based. The following applies: minimum inhibitory concentration, wild type E. coli (K-12).
Data set [1] is described as follows: Static light scattering before and after addition of PLE. The format is physicochemical. The following applies: compound 200 μM, [PLE] = 1 U/mL, 24 h.
Another data set has as its system E. coli. Kind of data set: Antibacterial activity before and after treatment with porcine liver esterase. Type of data set: cell-based. As to conditions: [PLE] = 1 U/mL.
Data set [2] has as its system ydgR, fepA, ompF deletion mutants of E. coli. Type of data set: cell-based. The following applies: compared with wild-type E. coli.
For data set [3], the system named is esterase (bioH, yjfP, frsA, ybfF, yfbB, ypfH, yeiG or yqiA) deletion mutants of E. coli. Briefly: Antibacterial activity against esterase deletion mutants of E. coli. The format is cell-based. The following applies: eight single esterase gene deletion mutants.
For data set [4] the following is noted: E. coli (K-12) lysate 0.1 U/mL, compound 200 μM, lysate activities normalized.
Data set [5] in a line: Serum stability in human serum. The following applies: human serum (from human male AB plasma), 200 μM, 37 °C, LC-MS.
For a further data set, the system named is HS-5 cells. The following applies: 24 h; CL, CLsu and conjugates 20 μM; Cipro, TMP, TEL 0.5 μM.

As to `COC(=O)CCC(=O)OC[C@@H](NC(=O)C(Cl)Cl)[C@H](O)c1ccc([N+](=O)[O-])cc1` [Compound 4b], the water solubility result in the data set “Water solubility” is “water-insoluble”. For the same molecule, in the data set with E. coli (K-12), the MIC is over 200 µM.

With `O=C(O)CC[C@@H](NC(=O)[C@@H](CCC(=O)O)NC(=O)CCC(=O)OC[C@@H](NC(=O)C(Cl)Cl)[C@H](O)c1ccc([N+](=O)[O-])cc1)C(=O)O` [Compound 2g], the MIC against E. coli (K-12) is over 200 µM.

Turning to `O=C(CCC(=O)OC[C@@H](NC(=O)C(Cl)Cl)[C@H](O)c1ccc([N+](=O)[O-])cc1)NCC(=O)N[C@H](CO)C(=O)O` [Compound 1c], the “intensity of static light scattering signal after addition of PLE” value (from here on “intensity”) in data set [1] was “increase drastically”. Also, in the data set on E. coli, the “change of inhibitory efficacy on addition of exogenous PLE” value (“change of inhibitory efficacy” for short) is recorded as “hardly changes the inhibitory efficacy”. Moreover, the “effect of deletion of ydgR, fepA or ompF on bacterial viability under treatment” value (from here on “effect of deletion of ydgR, fepA or ompF”) in data set [2] was “hardly rescues the bacteria”. Further, in [3], the “reduction of antibacterial activity by deletion of a cytoplasmic esterase” value (shortened to “reduction of antibacterial activity”) is “about 20%”. Further, the “apparent first-order rate constant of hydrolysis” value in [4] was determined as 3.763 h⁻¹. Also, the “time to complete hydrolysis” value in data set [5] was at most 2 h.

With `O=C(O)CNC(=O)[C@@H](CO)NC(=O)CCC(=O)OC[C@@H](NC(=O)C(Cl)Cl)[C@H](O)c1ccc([N+](=O)[O-])cc1` [Compound 1d], the “intensity” value in [1] is reported as “increase drastically”. Further, in the data set on E. coli, the “change of inhibitory efficacy” value was “hardly changes the inhibitory efficacy”. In addition, the “effect of deletion of ydgR, fepA or ompF” value in [2] is “hardly rescues the bacteria”. In [3], the “reduction of antibacterial activity” value is listed as about 10%. The “apparent first-order rate constant of hydrolysis” value in [4] came to 1.267 h⁻¹.

The molecule `C[C@@H](NC(=O)CCC(=O)OC[C@@H](NC(=O)C(Cl)Cl)[C@H](O)c1ccc([N+](=O)[O-])cc1)C(=O)O` [Compound 4a] displayed an MIC in the data set with E. coli (K-12) of over 200 µM.

As for `O=C(O)CCC(=O)OC[C@@H](NC(=O)C(Cl)Cl)[C@H](O)c1ccc([N+](=O)[O-])cc1` [CLsu, chloramphenicol succinate, reference compound], the “cytotoxicity against HS-5 cells” value in the data set with HS-5 cells is given as “lower cytotoxicity than CL”. Moreover, the “conversion to CL after 24 h” value in data set [5] (24 h) is reported as “less than 15%”.

For `CC[C@H]1OC(=O)[C@H](C)C(=O)[C@H](C)[C@@H](O[C@@H]2O[C@H](C)C[C@H](N(C)C)[C@H]2O)[C@](C)(OC)C[C@@H](C)C(=O)[C@H](C)[C@H]2N(CCCCn3cnc(-c4cccnc4)c3)C(=O)O[C@]12C` [telithromycin], the “cytotoxicity against HS-5 cells” value in the data set with HS-5 cells was “relatively low cytotoxicity”.

Turning to `NCCCC[C@H](NC(=O)[C@H](CCCCN)NC(=O)CCC(=O)OC[C@@H](NC(=O)C(Cl)Cl)[C@H](O)c1ccc([N+](=O)[O-])cc1)C(=O)O` [Compound 2c], the “intensity” value in data set [1] is “increase drastically”. Further, the “change of inhibitory efficacy” value in the data set with E. coli was “hardly changes the inhibitory efficacy”. In [2], the “effect of deletion of ydgR, fepA or ompF” value was “hardly rescues the bacteria”. Further, the “reduction of antibacterial activity” value in [3] is reported as “about 20%”. Besides, the “apparent first-order rate constant of hydrolysis” value in [4] came out at 0.310 h⁻¹.

Take `NCCCC[C@@H](NC(=O)[C@@H](CCCCN)NC(=O)CCC(=O)OC[C@@H](NC(=O)C(Cl)Cl)[C@H](O)c1ccc([N+](=O)[O-])cc1)C(=O)O` [Compound 2b]: the “intensity” value in data set [1] is on record as “increase drastically”. The “change of inhibitory efficacy” value with E. coli is “hardly changes the inhibitory efficacy”. Also, in [2], the “effect of deletion of ydgR, fepA or ompF” value is recorded as “hardly rescues the bacteria”. Besides, the “reduction of antibacterial activity” value in [3] is recorded as “about 20%”. Also, the “apparent first-order rate constant of hydrolysis” value in data set [4] was found to be 0.317 h⁻¹.

In the case of `O=C(O)C[C@@H](NC(=O)[C@@H](CC(=O)O)NC(=O)CCC(=O)OC[C@@H](NC(=O)C(Cl)Cl)[C@H](O)c1ccc([N+](=O)[O-])cc1)C(=O)O` [Compound 2h], the MIC against E. coli (K-12) is over 200 µM.

Usually MIC stands for the lowest concentration found to suppress growth. The low end stands for greater potency, the high end for weaker potency.
